Here are results for six compounds from patent US20200276150A1, “PARENTERAL FORMULATIONS OF MACROLIDE ANTIBIOTICS” (Tetard, Inc., priority 2010, published 2020).

In brackets after ≈: the same amount, converted by molar mass. Entries after “also recorded” stand apart in the source; their conditions may differ.

Data set [1] can be described thus: CEM-101 in 60 mM tartaric acid with and without 0.9% NaCl, concentration by HPLC (Examples 3A, 3B). The format is physicochemical. The procedure: EXAMPLE 3A. […] On addition of NaCl, the resultant solution went clear on mixing for an hour (53.0 mg/mL by HPLC). […] EXAMPLE 3B. Compositions of CEM-101 in an Unbuffered Solution for Parenteral Administration and Studies in 0.9% NaCl solution (˜8% w/v CEM-101). Approximately 90 mg CEM-101 was dissolved in 1 mL 60 mM tartaric acid pH 2.16 and allowed to mix overnight.

A short description of data set [2]: Cardiac tissue levels of CEM-101 (statement, no method). The settings on record: compared to other macrolides and ketolides.
The nature of data set [3]: IV administration to monkeys, observation for pain response (Example 10). The format is in vivo, Cynomolgus monkeys (Macaca fasicularis). The settings on record: IV infusion about 90 minutes, 5, 12.5, 25 mg/kg/d. The procedure:
EXAMPLE 10. Pharmacokinetics (PK) in monkeys following IV administration. […] The plasma level of CEM-101 and toxicokinetics at 0-24 hours is measured (venipuncture, predose, then immediately following completion of infusion at 0, 0.5, 1, 4, 8, and 24 hours). Animal body weight is also periodically measured. […] Total dose volume is 15 mL/kg, and intravenous infusion is carried out over about 90 minutes (10 mL/kg/h) via disposable indwelling catheter into one of the brachial and/or saphenous veins. Vein or vein location is changed at least every seven days. Control animals receive vehicle alone. An illustrative formulation is CEM-101 in the following vehicle comprising or consisting essentially of L(+)-tartaric acid, D-mannitol, SWFI, 1N HaOH, and optionally 1-thioglycerol, as described herein. Following dosing, a portion of the animals are immediately euthanized for necropsy evaluation. A “recovery” group is observed for an additional 28 days without dosing, then euthanized for necropsy evaluation. It is appreciated that both monkeys and dogs elicit particular sensitivity to pain, and therefore may be observed for pain response upon administration of the test articles.

A short description of data set [4]: QT effects of CEM-101 (statement, no method). The conditions noted are these: compared to other macrolides and ketolides.
Data set [5] in a line: IV administration to dogs, observation for pain response (Example 11). The settings on record: IV infusion about 90 minutes, 5, 10, 15 mg/kg/d. The format is in vivo, Beagle dogs (Canis familiaris). The procedure:
EXAMPLE 11. Pharmacokinetics (PK) in dogs following IV administration. […] The plasma level of CEM-101 and toxicokinetics at 0-24 hours is measured (jugular venipuncture, predose, then immediately following completion of infusion at 0, 0.5, 1, 4, 8, and 24 hours). Animal body weight is also periodically measured. […] Total dose volume is 15 mL/kg, and intravenous infusion is carried out over about 90 minutes (10 mL/kg/h) via disposable indwelling catheter into one of the cephalic and/or saphenous veins. Vein or vein location is changed at least every seven days. Control animals receive vehicle alone. An illustrative formulation is CEM-101 in the following vehicle comprising or consisting essentially of L(+)-tartaric acid, D-mannitol, SWFI, 1N HaOH, and optionally 1-thioglycerol, as described herein. Following dosing, a portion of the animals are immediately euthanized for necropsy evaluation. A “recovery” group is observed for an additional 28 days without dosing, then euthanized for necropsy evaluation. It is appreciated that both monkeys and dogs elicit particular sensitivity to pain, and therefore may be observed for pain response upon administration of the test articles.

Data set [6] deals with azithromycin-resistant strains. As to the kind of experiment: Antibacterial activity compared with azithromycin (statement, no method). The format is cell-based.
Data set [7] in a line: Saturated solubility of CEM-101 in a range of vehicles (Example 5). The conditions noted are these: for solubility at 72 h: thermodynamic from solid, mixed 72 hours, HPLC. The class given is physicochemical. The procedure:
EXAMPLE 5. Solubility of CEM-101 in a Range of Vehicles. […] Additional CEM-101 is added to vehicles which completely solubilized the CEM-101 API within 24 hours. Samples are allowed to mix for a total of 72 hours. Once mixed, the samples are assessed visually, centrifuged and then diluted to appropriate concentration for analysis by HPLC to determine saturated solubility. Without being bound by theory, it is believed herein that the vehicles are in situ salt forming compounds when mixed with CEM-101. Studies were conducted by weighing approximately 1000 mg of each vehicle into a number of vials. A known amount of CEM-101 was then added into each vial and the resulting mixture was mixed on a vortex prior to mixing overnight on a roller mixer.

Data set [8] can be described thus: Excipient compatibility by HS-MCDSC (Example 8). The conditions noted are these: API-excipient binary pair with CEM-101, 1:1 ratio, 30-80° C. The format is physicochemical. The procedure:
EXAMPLE 8. Determination of Compatibility of Excipients for Lyophilized Pharmaceutical Composition. Excipient compatibility is assessed using high sensitivity multi-cell differential scanning calorimetry (HS-MCDSC). The high sensitivity multi-cell differential scanning calorimeter is an analytical instrument designed to measure heat capacity and changes in heat capacity as a function of temperature.
Stability (of an individual component) is usually assessed by loading a sample of the material into a cell and measuring the heat-flow as a function of time. The instrument should rapidly detect any degradation processes occurring, and the absence of any heat responses gives confidence that the system under investigation is stable.
A similar approach can be adopted for testing binary mixtures of the active pharmaceutical ingredient (API) and excipients. […] Any unexpected power change recorded in the drug-excipient mixture indicates a possible interaction between the two components.
Calorimetric data were recorded using a high sensitivity MCDSC (CSC Model 4100 MCDSC, USA). Samples were run using API alone (ca. 50 mg), excipients alone (ca. 50 mg) and API-Excipient binary pairs (ca. 25 mg:25 mg, 1:1 ratio). Samples were weighed directly into the cells which were sealed with the metal caps provided and a rubber sealing disc to ensure an air-tight seal. Experiments were programmed as follows:
The MCDSC consists of four cells contained in a loading chamber. The cells 1, 2 and 3 were filled with samples, while the 4th cell is always left empty and run as a blank. Prior to analysis, cells 1 to 3 were run empty with no samples to record the blank results which were then subtracted from subsequent results obtained from samples analysed. Data were recorded every 10 s using the dedicated software package CpCalc. Data analysis was performed using CpCalc and Microsoft Excel.
The calorimeter records all the events occurring in each of the sample cell. The approach adopted here was to calculate the power-time data obtained for the active and excipients alone. The calculated data is then used to create an ‘expected’ theoretical trace as an average of the signals coming from both API and excipients at a mixture of 1:1 ratio.

Data set [9] is described as follows: Solubility of each excipient in CEM-101 IV solution (Example 9). The format is physicochemical. The conditions noted are these: in 1 mL CEM-101 IV solution (50 mg/mL). The procedure:
EXAMPLE 9. Characterization of properties of excipients for freeze drying to prepare lyophilized pharmaceutical composition. […] The solution in the vials were mixed using a vortex mixer and sonicated until a clear solution was observed. […] The caps were then removed and the vials were covered with a small tissue paper and placed in the freeze drier for 24 h (in the dark).

Data set [10] in a line: Freeze drying, visual observation of the cakes (Example 9). The settings on record: for Visual observation of the cake: excipient at its maximum concentration in CEM-101 IV solution, frozen -25° C. 2 h, freeze dried 24 h. The format is physicochemical. The procedure: 1 mL of CEM-101 IV solution was dispensed into in a clear glass vial, followed by the careful addition of small amounts of the excipient under investigation (either 50 or 100 mg). The solution in the vials were mixed using a vortex mixer and sonicated until a clear solution was observed. The final data is shown below, and reflects the maximum possible amount of each excipient used in the freeze dried formulations. Subsequently, all clear vials were frozen at −25° C. for 2 h. The caps were then removed and the vials were covered with a small tissue paper and placed in the freeze drier for 24 h (in the dark). The cakes were then inspected and the following visual observations detailed in the table below were made.
Based on the results above, three excipients with no interaction with the API were selected and solutions containing various ratio combinations of the API and excipient were prepared. These solutions were then frozen at −25° C., then lyophilised for 24 h, in the dark. The resultant cakes were then examined visually to determine the integrity of the plugs.

Data set [11] can be described thus: Storage of lyophilized cakes at 5° C., 25° C./60% RH and 40° C./75% RH. The format is physicochemical. The conditions noted are these: 7, 13 and 28 days. The procedure: Cakes were stored at 5° C., 25° C./60% RH and 40° C./75% RH. Samples were evaluated at 7, 13 and 28 days.

Broadly, the solubility is the dissolved amount per volume that the medium holds. As to `CC[C@H]1OC(=O)[C@@](C)(F)C(=O)[C@H](C)[C@@H](O[C@@H]2O[C@H](C)C[C@H](N(C)C)[C@H]2O)[C@@](C)(OC)C[C@@H](C)C(=O)[C@H](C)[C@H]2N(CCCCn3cc(-c4cccc(N)c4)nn3)C(=O)O[C@]12C` [CEM-101], the “Concentration of clear solution by HPLC” value in data set [1] (51.38 mg CEM-101 in 1 mL 60 mM tartaric acid pH 2.16, mixed overnight (5% initial formulation)) amounted to 50400 µg/mL. The “Concentration by HPLC after addition of 0.9% w/v NaCl” value in [1] (5% NaCl formulation, clear on mixing for an hour) came out at 53000 µg/mL; in data set [1] (8% NaCl formulation, white lump formed, mixed approx. 2 hours), 3900 µg/mL. Moreover, the solubility in data set [1] (aqueous buffer, thermodynamic from solid, approx. 90 mg CEM-101 in 1 mL 60 mM tartaric acid pH 2.16, mixed overnight (8% initial formulation), read-out: Saturated solubility by HPLC) was found to be 83 mg/mL (≈ 98.2 mM). Moreover, in [2], the “Cardiac tissue levels / accumulation” value is listed as “do not accumulate in cardiac tissue; also recorded: do not exhibit high cardiac tissue levels”. For the same compound, the “Pain response upon IV administration” value in data set [3] and in data set [5] was “no reaction by the animal was observed” throughout. Moreover, in data set [4], the “QT effects / QT prolongation” value is reported as “do not cause QT prologation; also recorded: low QT effects or no QT effects”. Moreover, the “Activity against azithromycin-resistant strains” value in data set [6] is on record as “active”. In addition, the “Potency relative to azithromycin” value in [6] (more potent than azithromycin) was 8-16 times. In addition, the “pH of resultant solution” value in data set [7] (CEM-101 in 1M Ascorbic Acid (sample 17)) came out at 1.93; in data set [7] (CEM-101 in 1M Methane sulphonic Acid (sample 16)), 0.03; in data set [7] (CEM-101 in 1M Tartaric Acid (sample 19)), 1.27. For the same compound, the solubility at 72 h is 100 mg/mL (≈ 118 mM) in [7] (pH 0.03, simulated gastric fluid, vehicle 1M Methane sulphonic Acid (sample 16)); 100 mg/mL (≈ 118 mM) in data set [7] (pH 1.27, simulated gastric fluid, vehicle 1M Tartaric Acid (sample 19)); 100 mg/mL (≈ 118 mM) in [7] (pH 1.93, simulated gastric fluid, vehicle 1M Ascorbic Acid (sample 17)); 100 mg/mL (≈ 118 mM) in data set [7] (simulated gastric fluid, vehicle 1M Hydrochloric Acid (sample 15)).

For `OC[C@H]1O[C@H](O[C@H]2O[C@H](CO)[C@@H](O)[C@H](O)[C@H]2O)[C@H](O)[C@@H](O)[C@@H]1O` [Trehalose], in data set [8], the “MC-DSC Results (No Interaction/Interaction)” value is listed as “Interaction”. The “Conc. (mg/mL), maximum possible amount of excipient giving a clear solution” value (from here on “Conc. (mg/mL), maximum possible amount”) in data set [9] was found to be 700 mg/mL. Moreover, the “Visual observation of the cake” value in data set [10] is “Poor cake-puffing”.

`NCC(=O)O` [Glycine]: the “MC-DSC Results (No Interaction/Interaction)” value in data set [8] is reported as “No”; in data set [8] (listed as glycine) it was “compatible”. For the same compound, the “Cake colour on storage” value in data set [11] is on record as “remained white”. Moreover, the “Visual observation of lyophilizate” value in [10] (API:Excipient Ratio 1:1), in data set [10] (API:Excipient Ratio 1:2), in [10] (API:Excipient Ratio 1:3) and in data set [10] (API:Excipient Ratio 1:4) was “Good solid cake- with uniform” in each case. Further, the “Visual observation of the cake” value in [10] was “Good solid cake-”.

Isomalt: the “MC-DSC Results (No Interaction/Interaction)” value in data set [8] is reported as “Interaction”. For the same compound, in data set [9], the “Conc. (mg/mL), maximum possible amount” value was determined as 600 mg/mL. Further, in data set [10], the “Visual observation of the cake” value is recorded as “Good solid cake-”.

As for `OC[C@@H](O)[C@@H](O)[C@H](O)[C@H](O)CO` [Mannitol], the “MC-DSC Results (No Interaction/Interaction)” value in [8] is recorded as “No”; in data set [8] (listed as mannitol) it was “compatible”. Moreover, in data set [9], the “Conc. (mg/mL), maximum possible amount” value amounted to 200 mg/mL. Also, the “Cake colour on storage” value in data set [11] is on record as “remained white”. Further, the “Visual observation of lyophilizate” value in [10] (API:Excipient Ratio 1:1), in [10] (API:Excipient Ratio 1:2), in [10] (API:Excipient Ratio 1:3) and in data set [10] (API:Excipient Ratio 1:4) was “Good solid cake- with uniform” each time. For the same compound, the “Visual observation of the cake” value in data set [10] is on record as “Good solid cake-”.

In the case of `OC[C@H]1O[C@@](CO)(O[C@H]2O[C@H](CO)[C@@H](O)[C@H](O)[C@H]2O)[C@@H](O)[C@@H]1O` [Sucrose], the “MC-DSC Results (No Interaction/Interaction)” value in data set [8] was “No”; in [8] (listed as sucrose), “compatible”. Further, the “Cake colour on storage” value in data set [11] is on record as “Some cake yellowing”. The “Visual observation of lyophilizate” value in [10] (API:Excipient Ratio 1:1), in data set [10] (API:Excipient Ratio 1:2), in [10] (API:Excipient Ratio 1:3) and in [10] (API:Excipient Ratio 1:4) was “Good solid cake- with uniform” each time.
